# Source: patent publication US7943603B2, “Medical uses of a selective estrogen receptor modulator in combination with sex steroid precursors” (Endorecherche, Inc., priority 1998, dated 2011)
# “Also recorded” adds a separate entry of the source.
# Assays:
# [1] = system: DMBA-induced mammary carcinoma; experiment: Development of DMBA-induced mammary carcinoma in the rat; assay type: in vivo; conditions: 279 days after DMBA
# Protocol: (§1) Female Sprague-Dawley rats [Crl:CD(SD)Br] were obtained at 44-46 days of age from Charles River Canada Inc. (St. Constant, Quebec) and housed 2 per cage in a light (12 h light/day; lights on at 07:15 h)-and temperature (22±2° C.)-controlled environment. Animals received Purina rodent chow and tap water ad libitum. The animal studies were conducted in a Canadian Council on Animal Care (CCAC)-approved facility in agreement with the CCAC Guide for Care and Use of Experimental Animals.
# Mammary carcinomas were induced by a single intragastric administration of 20 mg of DMBA (Sigma Chemical Co., St. Louis, Mo.) in 1 ml of corn oil at 50-52 days of age. Two months later, tumor measurement was performed biweekly. The two largest perpendicular diameters of each tumor were recorded with calipers to estimate tumor size as described (Asselin et al., Endocrinology 101: 666-671, 1977). Tumor site, size and number were recorded.
# (§2) The animals were randomly divided into groups each containing 20 rats with the exception of 40 animals in the control group. […] Treatment was initiated 3 days before the oral administration of DMBA. EM-800 was synthesized in the Medicinal Chemistry Division of our laboratory while DHEA was purchased from Steraloids Inc., Wilton, N.H.
# Many of the control animals and some of EM-800- or DHEA-treated animals were sacrificed by cervical dislocation under isoflurane-induced anesthesia 6 months after DMBA administration because of the too large size of tumors. The values of tumor size and number of these rats at sacrifice, together with those measured at later time intervals from the surviving animals, were used for the later analysis of the incidence of tumors, average tumor number per tumor-bearing rat and average tumor size per tumor-bearing animal. […] Rats were sacrificed 279 days after DMBA administration.
# Statistical significance was measured according to the multiple range test of Duncan-Kramer (Biometrics 12: 307-310, 1956). Analysis of the incidence of development of mammary tumors was performed using the Fisher's exact test (Conover, Practical nonparametric statistics, 2nd Edition 153-170, 1980). The data are presented as means±S.E.M.
# [2] = system: female rat; experiment: Bone mineral density (DEXA) after 9-month treatment; assay type: in vivo; conditions: DHEA 10 mg percutaneously, EM-800 75 μg orally, once daily, alone or in combination, 9 months
# Protocol: as §1, §2
# Rats were anesthetized with an i.p. injection of ketamine hydrochloride and diazepam at doses of 50 and 4 mg/kg B.W., respectively. The whole skeleton and the right femur were scanned using dual energy X-ray absorptiometry (DEXA; QDR 2000-7.10C, Hologic, Waltham, Mass.) equipped with a Regional High Resolution software. The scan field sizes were 28.110×17.805 cm and 5.0×1.902 cm, the resolutions were 0.1511×0.0761 cm and 0.0254×0.0127 cm, while the scan speeds were 0.3608 and 0.0956 mm/sec for total skeleton and femur, respectively. Both bone mineral content (BMC) and bone mineral density (BMD) of total skeleton, lumbar spine, and femur were measured on the scan images of total skeleton and femur.
# [3] = system: rat; experiment: Urine and serum biochemical parameters of bone metabolism; assay type: in vivo; conditions: DHEA 10 mg percutaneously, EM-800 75 μg orally, once daily, alone or in combination, 9 months
# Description: as §2
# (§3) Twenty-four-hour urinary samples were collected at the end of the experiment from the first 9 rats of each group following transfer in metabolic cages (Allentown Caging Equipment Co., Allentown, N.J.). Two urinary samples were collected and analyzed on different days for each animal in order to minimize the influence of daily variation. Therefore, each value shown represents the mean of the two measurements performed on two different days. 0.5 ml of toluene was added into the urine collecting tubes to prevent urine evaporation and bacterial growth and the urinary volume was recorded. Trunk blood was collected at sacrifice and was allowed to clot at 4° C. overnight before centrifugation at 3000 rpm for 30 min.
# (§4) Fresh samples were used for the assay of urinary creatinine, calcium, and phosphorus as well as serum total alkaline phosphatase (tALP) activity, cholesterol and triglycerides. These biochemical parameters were measured automatically with a Monarch 2000 Chemistry System (Instrumentation Laboratory Co. Lexington, Mass.) under Good Laboratory Practice conditions. Urinary hydroxyproline was measured as described (Podenphant et al., Clinica Chimica Acta 142: 145-148, 1984).
# [4] = system: rat; experiment: Serum triglyceride and cholesterol levels after 9-month treatment; assay type: in vivo; conditions: DHEA 10 mg percutaneously, EM-800 75 μg orally, once daily, alone or in combination, 9 months
# Description: as §2, §3, §4
# [5] = system: ovariectomized (OVX) nude mice supplemented with estrone; experiment: Uterine, vaginal and body weight in OVX nude mice bearing ZR-75-1 xenografts; conditions: OVX+E1 nude mice
# Protocol: A posteriori pairwise comparisons were performed using Fisher's test for least significant difference. Main effects and the interaction of treatments on body weight and organ weight were analyzed using a standard two-way ANOVA with interactions. All ANOVAs were performed using SAS program (SAS Institute, Cary, N.C., USA). Significance of differences were declared using a 2-tailed test with an overall level of 5%.
# [6] = system: ovariectomized rats; experiment: Bone histomorphometry of tibia after 12-month treatment of ovariectomized rats; assay type: in vivo, rat; conditions: 12 months, histology
# Protocol: Intact animals are added as additional controls. Data are presented as mean±SEM **p<0.01 versus OVX Control.
# Modified trichrome Masson-Goldner, magn. ×80. T: Trabeculae, GP: Growth Plate.
# [7] = Example 5 table: serum, urinary and GnRH mRNA parameters in OVX groups; assay type: in vivo; conditions: doses not given
# [8] = aged Sprague-Dawley rats; reduced from 600 g, food intake unaffected; cited from earlier work
# [9] = system: human ZR-75-1 breast tumor xenografts; experiment: Growth of human ZR-75-1 breast tumor xenografts in OVX nude mice supplemented with estrone; conditions: alone or with EM-800 15 μg, OVX+E1 0.5 μg nude mice, 9.5 months
compound,measurement,setting,value
"C[C@]12CC[C@H](O)CC1=CC[C@@H]1[C@@H]2CC[C@]2(C)C(=O)CC[C@@H]12 [DHEA, dehydroepiandrosterone]",incidence of DMBA-induced mammary carcinoma (animals with palpable tumors),"[1]; DHEA 10 mg percutaneously, EM-800 75 μg orally, once daily, control 95%",57%
same,average tumor number per tumor-bearing animal,"[1]; end of experiment, DHEA 10 mg, EM-800 75 μg daily, control 4.7±0.5",3.4±0.7 tumors/animal
same,average tumor area per tumor-bearing animal,"[1]; end of experiment, DHEA 10 mg, EM-800 75 μg daily, control 12.8±1.3",10.2±2.1 cm^2
same,BMD FEMUR,[2],0.3408 ± 0.0038 g/cm2
same,BMD LUMBAR SPINE,[2],0.2163 ± 0.0049 g/cm2
same,BMD TOTAL SKELETON,[2],0.1465 ± 0.0010 g/cm2
same,increase in BMD of femur versus control,[2],8.2%
same,increase in BMD of lumbar spine versus control,[2],10.6%
same,increase in BMD of total skeleton versus control,[2],6.9%
same,decrease of daily urinary calcium excretion versus control,[3],no effect
same,decrease of daily urinary phosphorus excretion versus control,[3],no effect
same,decrease of urinary hydroxyproline/creatinine ratio versus control,[3],no effect; also recorded: did not affect; also recorded: did not show any effect
same,decrease of serum cholesterol levels,[4],unaffected
same,decrease of serum triglyceride levels,[4],60%
same,effect of addition of DHEA on estrone-stimulated vaginal weight,"[5]; DHEA 0.3, 1.0 or 3.0 mg",no significant effect
same,effect on body weight adjusted for tumor weight,[5]; 9.5 months,No significant effect
same,effect on trabecular bone volume of proximal tibia metaphysis (FIG. 8),[6],significant increase in trabecular bone volume
same,GnRH mRNA levels silver grains per cell,[7],34.5 ± 0.7 silver grains per cell
same,Triglycerides,[7],0.8 ± 0.1 mmol/L
same,Urinary OH-proline/creatinin,[7],7.3 ± 1.0 μmol/mmol
same,LH,[7]; LD: Limit of Detection: 0.01 ng/ml,0.02 ± 0.01 ng/mL
same,body weight,[8],550 g
same,"Complete response, (%)",[9]; DHEA 0.3 mg percutaneously,28.6%
same,"Complete response, number",[9]; DHEA 0.3 mg percutaneously,4
same,"Partial response, (%)",[9]; DHEA 0.3 mg percutaneously,0 (0) %
same,"Partial response, number",[9]; DHEA 0.3 mg percutaneously,0 (0)
same,"Progression, (%)",[9]; DHEA 0.3 mg percutaneously,50.0%
same,"Progression, number",[9]; DHEA 0.3 mg percutaneously,7
same,"Stable response, (%)",[9]; DHEA 0.3 mg percutaneously,21.4%
same,"Stable response, number",[9]; DHEA 0.3 mg percutaneously,3
same,"Complete response, (%)",[9]; DHEA 1.0 mg percutaneously,26.7%
same,"Complete response, number",[9]; DHEA 1.0 mg percutaneously,4
same,"Partial response, (%)",[9]; DHEA 1.0 mg percutaneously,0 (0) %
same,"Partial response, number",[9]; DHEA 1.0 mg percutaneously,0 (0)
same,"Progression, (%)",[9]; DHEA 1.0 mg percutaneously,53.3%
same,"Progression, number",[9]; DHEA 1.0 mg percutaneously,8
same,"Stable response, (%)",[9]; DHEA 1.0 mg percutaneously,20.0%
same,"Stable response, number",[9]; DHEA 1.0 mg percutaneously,3
same,"Complete response, (%)",[9]; DHEA 3.0 mg percutaneously,20.0%
same,"Complete response, number",[9]; DHEA 3.0 mg percutaneously,3
same,"Partial response, (%)",[9]; DHEA 3.0 mg percutaneously,0 (0) %
same,"Partial response, number",[9]; DHEA 3.0 mg percutaneously,0 (0)
same,"Progression, (%)",[9]; DHEA 3.0 mg percutaneously,66.7%
same,"Progression, number",[9]; DHEA 3.0 mg percutaneously,10
same,"Stable response, (%)",[9]; DHEA 3.0 mg percutaneously,13.3%
same,"Stable response, number",[9]; DHEA 3.0 mg percutaneously,2
